From US20200085791A1, “[(PHENYLSULFONYL)OCTAHYDRO-EPIMINOISOINDOL-YL](1H-1,2,3-TRIAZOL-5-YL)METHANONES” (Bayer Pharma Aktiengesellschaft, priority 2016, published 2020)

Molecular target: T1, recombinant human AKR1C3 (Aldo-keto reductase family 1 member C3) (Homo sapiens, UniProt P42330)
T1 construct: GST (cleaved yes); made in house; host or cells: E. coli
T1 sequence (P42330 1-323): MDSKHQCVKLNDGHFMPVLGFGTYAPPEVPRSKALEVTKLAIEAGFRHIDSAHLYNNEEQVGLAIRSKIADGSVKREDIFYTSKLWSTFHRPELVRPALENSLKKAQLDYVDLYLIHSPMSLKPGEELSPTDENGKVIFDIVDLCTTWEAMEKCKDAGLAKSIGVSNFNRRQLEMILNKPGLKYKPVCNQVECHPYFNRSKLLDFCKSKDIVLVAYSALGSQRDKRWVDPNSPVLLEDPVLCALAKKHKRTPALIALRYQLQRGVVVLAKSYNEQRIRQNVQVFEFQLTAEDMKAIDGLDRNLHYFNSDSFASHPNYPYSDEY
Experiment: In Vitro Assay 1: AKR1C3-inhibitory activity (Coumberone to Coumberol fluorescence assay)
Format: biochemical
Conditions: recombinant enzyme, Coumberone 0.3 μM, NADPH 10 μM, 15 min pre-incubation, 4-parameter fit; average or median values
Experimental: In Vitro Assay 1: AKR1C3-Inhibitory Activity
The AKR1C3-inhibitory activity of the substances of the present invention was measured in the AKR1C3 assay described in the paragraphs below.
Essentially, the enzyme activity is measured by quantification of the Coumberol from Coumberone (Halim, M., Yee, D. J., and Sames, D., J. AM. CHEM. SOC. 130, 14123-14128 (2008) and Yee, D. J., Balsanek, V., Bauman, D. R., Penning, T. M., and Sames, D., Proc. Natl. Acad. Sci. USA 103, 13304-13309 (2006)). In this test, the increase of the highly fluorescent Coumberol by NADPH- (nicotinamide adenine dinucleotide phosphate)-dependent reduction of the non-fluorescent Coumberone by AKR1C3 can be determined.
The enzyme used was recombinant human AKR1C3 (Aldo-keto reductase family 1 member C3) (GenBank Accession No. NM_003739). This was expressed in E. coli as GST (glutathione S transferase) fusion protein and purified by glutathione Sepharose affinity chromatography. The GST was removed by digestion with thrombin and subsequent size exclusion chromatography (Dufort, I., Rheault, P., Huang, X F., Soucy, P., and Luu-The, V., Endocrinology 140, 568-574 (1999)).
For the assay, 50 nl of a 100-fold concentrated solution of the test substance in DMSO were pipetted into a black low-volume 384-well microtiter plate (Greiner Bio-One, Frickenhausen, Germany), 2.5 μl of a solution of AKR1C3 in assay buffer [50 mM potassium phosphate buffer pH 7, 1 mM DTT, 0.0022% (w/v) Pluronic F-127, 0.01% BSA (w/v) and protease inhibitor cocktail (Complete, EDTA-free Protease Inhibitor Cocktail from Roche)] were added and the mixture was incubated for 15 min to allow pre-binding of the substances to the enzyme prior to the enzyme reaction. The enzyme reaction was then started by addition of 2.5 μl of a solution of NADPH (20 μM→final concentration in 5 μl of assay volume is 10 μM) and Coumberone (0.6 μM→final concentration in 5 μl of assay volume is 0.3 μM) in assay buffer, and the resulting mixture was incubated at […] for the reaction time of typically 90 min. The concentration of the AKR1C3 and the reaction time was adapted to the respective activity of the enzyme preparation and adjusted such that the assay was carried out in the linear range.
Typical AKR1C3 concentrations were in the region of 1 nM. The reaction was stopped by addition of 2.5 μl of a stop solution consisting of the inhibitor EM-1404 [F. Labrie et al. U.S. Pat. No. 6,541,463, 2003] (3 μM→final concentration in 7.5 μl of assay volume is 1 μM). The fluorescence of the Coumberole was then measured at 520 nm (excitation at 380 nm) using a suitable measuring instrument (Pherastar from BMG Labtechnologies). The intensity of the fluorescence was used as a measure of the amount of Coumberole formed and thus of the enzyme activity of AKR1C3. The data were normalized (enzyme reaction without inhibitor—0% inhibition; all other assay components, but no enzyme=100% inhibition).

## O=C(c1cnn[nH]1)N1[C@@H]2CC[C@H]1[C@H]1CN(S(=O)(=O)c3ccccc3C(F)(F)F)C[C@H]12 [Example 29, 1H-1,2,3-triazol-5-yl[(3aR,4S,7R,7aS)-2-{[2-(trifluoromethyl)phenyl]sulfonyl}octahydro-1H-4,7-epiminoisoindol-8-yl]methanone]
  IC50: 9 nM

## Cc1cc(C)cc(S(=O)(=O)N2[C@@H]3CC[C@H]2[C@H]2CN(C(=O)c4cnn[nH]4)C[C@H]23)c1 [Example 24, {(3aR,4S,7R,7aS)-8-[(3,5-dimethylphenyl)sulfonyl]octahydro-2H-4,7-epiminoisoindol-2-yl}(1H-1,2,3-triazol-5-yl)methanone]
  IC50: 66 nM

## O=C(c1cnn[nH]1)N1C[C@@H]2[C@H](C1)[C@H]1CC[C@@H]2N1S(=O)(=O)c1cccc2c1OCC2 [Example 62, [(3aR,4R,7S,7aS)-8-(2,3-dihydro-1-benzofuran-7-ylsulfonyl)octahydro-2H-4,7-epiminoisoindol-2-yl](1H-1,2,3-triazol-5-yl)methanone]
  IC50: 78 nM

## O=C(c1cnn[nH]1)N1C[C@@H]2[C@H](C1)[C@H]1CC[C@@H]2N1S(=O)(=O)c1ccccc1 [Example 20, [(3aR,4R,7S,7aS)-8-(phenylsulfonyl)octahydro-2H-4,7-epiminoisoindol-2-yl](1H-1,2,3-triazol-5-yl)methanone]
  IC50: 45 nM

## O=C(c1cnn[nH]1)N1C[C@@H]2[C@H](C1)[C@H]1CC[C@@H]2N1S(=O)(=O)c1cc(F)c(F)cc1F [Example 52, 1H-1,2,3-triazol-5-yl{(3aR,4R,7S,7aS)-8-[(2,4,5-trifluorophenyl)sulfonyl]octahydro-2H-4,7-epiminoisoindol-2-yl}methanone]
  IC50: 21 nM

## O=C(c1cnn[nH]1)N1[C@@H]2CC[C@H]1[C@H]1CN(S(=O)(=O)c3cccc(F)c3)C[C@H]12 [Example 27, {(3aR,4S,7R,7aS)-2-[(3-fluorophenyl)sulfonyl]octahydro-1H-4,7-epiminoisoindol-8-yl}(1H-1,2,3-triazol-5-yl)methanone]
  IC50: 2 nM

## O=C(c1cnn[nH]1)N1C[C@@H]2[C@H](C1)[C@@H]1CC[C@H]2N1S(=O)(=O)c1ccc(F)c(F)c1 [Example 25, {(3aR,4S,7R,7aS)-8-[(3,4-difluorophenyl)sulfonyl]octahydro-2H-4,7-epiminoisoindol-2-yl}(1H-1,2,3-triazol-5-yl)methanone]
  IC50: 132 nM

## COc1ccccc1S(=O)(=O)N1[C@@H]2CC[C@H]1[C@@H]1CN(C(=O)c3cnn[nH]3)C[C@@H]12 [Example 54, {(3aR,4R,7S,7aS)-8-[(2-methoxyphenyl)sulfonyl]octahydro-2H-4,7-epiminoisoindol-2-yl}(1H-1,2,3-triazol-5-yl)methanone]
  IC50: 13 nM

## O=C(c1cnn[nH]1)N1C[C@@H]2[C@H](C1)[C@H]1CC[C@@H]2N1S(=O)(=O)c1cccc(Cl)c1Cl [Example 42, {(3aR,4R,7S,7aS)-8-[(2,3-dichlorophenyl)sulfonyl]octahydro-2H-4,7-epiminoisoindol-2-yl}(1H-1,2,3-triazol-5-yl)methanone]
  IC50: 7 nM

## O=C(c1cnn[nH]1)N1C[C@@H]2[C@H](C1)[C@H]1CC[C@@H]2N1S(=O)(=O)c1cccc2nsnc12 [Example 45, [(3aR,4R,7S,7aS)-8-(2,1,3-benzothiadiazol-4-ylsulfonyl)octahydro-2H-4,7-epiminoisoindol-2-yl](1H-1,2,3-triazol-5-yl)methanone]
  IC50: 109 nM

## O=C(c1cnn[nH]1)N1C[C@@H]2[C@H](C1)[C@H]1CC[C@@H]2N1S(=O)(=O)c1ccc(Br)cc1 [Example 30, ((3aR,4R,7S,7aS)-8-[(4-bromophenyl)sulfonyl]octahydro-2H-4,7-epiminoisoindol-2-yl)(1H-1,2,3-triazol-5-yl)methanone]
  IC50: 193 nM

## COc1ccc(Cl)cc1S(=O)(=O)N1[C@@H]2CC[C@H]1[C@@H]1CN(C(=O)c3cnn[nH]3)C[C@@H]12 [Example 47, {(3aR,4R,7S,7aS)-8-[(5-chloro-2-methoxyphenyl)sulfonyl]octahydro-2H-4,7-epiminoisoindol-2-yl}(1H-1,2,3-triazol-5-yl)methanone]
  IC50: 85 nM

## O=C(c1cnn[nH]1)N1C[C@@H]2[C@H](C1)[C@@H]1CC[C@H]2N1S(=O)(=O)c1ccccc1C(F)(F)F [Example 1, 1H-1,2,3-triazol-5-yl[(3aR,4S,7R,7aS)-8-{[2-(trifluoromethyl)phenyl]sulfonyl}octahydro-2H-4,7-epiminoisoindol-2-yl]methanone]
  IC50: 2 nM

## O=C(c1c[nH]nn1)N1C[C@@H]2[C@H](C1)[C@@H]1CC[C@H]2N1S(=O)(=O)c1cc(Cl)cc(Cl)c1 [Example 4, {(3aR,4S,7R,7aS)-8-[(3,5-dichlorophenyl)sulfonyl]octahydro-2H-4,7-epiminoisoindol-2-yl}(1H-1,2,3-triazol-4-yl)methanone]
  IC50: 44 nM

## COc1ccccc1S(=O)(=O)N1[C@@H]2CC[C@H]1[C@H]1CN(C(=O)c3c[nH]nn3)C[C@H]12 [Example 15, {(3aR,4S,7R,7aS)-8-[(2-methoxyphenyl)sulfonyl]octahydro-2H-4,7-epiminoisoindol-2-yl}(1H-1,2,3-triazol-4-yl)methanone]
  IC50: 45 nM

## CCc1ccc(S(=O)(=O)N2[C@@H]3CC[C@H]2[C@@H]2CN(C(=O)c4cnn[nH]4)C[C@@H]23)cc1 [Example 38, {(3aR,4R,7S,7aS)-8-[(4-ethylphenyl)sulfonyl]octahydro-2H-4,7-epiminoisoindol-2-yl}(1H-1,2,3-triazol-5-yl)methanone]
  IC50: 193 nM

## O=C(c1c[nH]nn1)N1C[C@@H]2[C@H](C1)[C@@H]1CC[C@H]2N1S(=O)(=O)c1cc(F)ccc1F [Example 18, {(3aR,4S,7R,7aS)-8-[(2,5-difluorophenyl)sulfonyl]octahydro-2H-4,7-epiminoisoindol-2-yl}(1H-1,2,3-triazol-4-yl)methanone]
  IC50: 19 nM

## N#Cc1c(Cl)cccc1S(=O)(=O)N1[C@@H]2CC[C@H]1[C@@H]1CN(C(=O)c3cnn[nH]3)C[C@@H]12 [Example 61, 2-chloro-6-{[(3aR,4R,7S,7aS)-2-(1H-1,2,3-triazol-5-ylcarbonyl)octahydro-1H-4,7-epiminoisoindol-8-yl]sulfonyl}benzonitrile]
  IC50: 84 nM

## O=C(c1cnn[nH]1)N1C[C@@H]2[C@H](C1)[C@H]1CC[C@@H]2N1S(=O)(=O)c1ccc([N+](=O)[O-])cc1 [Example 32, {(3aR,4R,7S,7aS)-8-[(4-nitrophenyl)sulfonyl]octahydro-2H-4,7-epiminoisoindol-2-yl}(1H-1,2,3-triazol-5-yl)methanone]
  IC50: 420 nM

## O=C(c1c[nH]nn1)N1C[C@@H]2[C@H](C1)[C@@H]1CC[C@H]2N1S(=O)(=O)c1cc(F)cc(F)c1 [Example 7, {(3aR,4S,7R,7aS)-8-[(3,5-difluorophenyl)sulfonyl]octahydro-2H-4,7-epiminoisoindol-2-yl}(1H-1,2,3-triazol-4-yl)methanone]
  IC50: 74 nM

## O=C(c1cnn[nH]1)N1C[C@@H]2[C@H](C1)[C@H]1CC[C@@H]2N1S(=O)(=O)c1ccc(F)c(F)c1F [Example 49, 1H-1,2,3-triazol-5-yl{(3aR,4R,7S,7aS)-8-[(2,3,4-trifluorophenyl)sulfonyl]octahydro-2H-4,7-epiminoisoindol-2-yl}methanone]
  IC50: 148 nM

## Cc1ccc(Br)cc1S(=O)(=O)N1[C@@H]2CC[C@H]1[C@@H]1CN(C(=O)c3cnn[nH]3)C[C@@H]12 [Example 55, {(3aR,4R,7S,7aS)-8-[(5-bromo-2-methylphenyl)sulfonyl]octahydro-2H-4,7-epiminoisoindol-2-yl}(1H-1,2,3-triazol-5-yl)methanone]
  IC50: 4 nM
